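Briefly, cells in 96-well plates were exposed to five compound concentrations for 48 h, and endpoints were estimated by linear interpolation. Here, GI50 denotes the concentration required for 50% inhibition of growth. TGI denotes the concentration required for complete inhibition of growth.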
Legend:
Test in all cases: growth of human tumour cells (NCI), 48 h
[1] = system: A498 renal
[2] = system: HS 578T breast
[3] = system: OVCAR-4 ovarian
[4] = system: SNB-19 CNS
[5] = system: SF-295 CNS
[6] = system: DU-145 prostate
[7] = system: KM12 colon
[8] = system: TK-10 renal
[9] = system: MDA-N
[10] = system: SN12C renal
[11] = system: BT-549 breast
[12] = system: MALME-3M melanoma

Row | SMILES | TGI [1] | TGI [2] | TGI [3] | TGI [4] | TGI [5] | TGI [6] | TGI [7] | TGI [8] | TGI [9] | TGI [10] | TGI [11] | TGI [12] | GI50 [1] | GI50 [2] | GI50 [4] | GI50 [5] | GI50 [7] | GI50 [8]
1 | c1ccc([P+](CCNCCNCC[P+](c2ccccc2)(c2ccccc2)c2ccccc2)(c2ccccc2)c2ccccc2)cc1 | > 100 µM | > 100 µM | > 100 µM | > 100 µM | > 100 µM | > 100 µM | > 100 µM | > 100 µM | > 100 µM | > 100 µM | > 100 µM | – | – | – | – | – | – | –
2 | CCCCCCCCCC[C@@H](O)[C@H]1CC[C@H]([C@H]2CC[C@H]([C@H](O)CCCCCCCCCC[C@@H]3CC(CC(C)=O)C(=O)O3)O2)O1 (stereo not given in full) | > 50 µM | > 50 µM | > 50 µM | > 50 µM | > 50 µM | > 50 µM | > 50 µM | > 50 µM | – | > 50 µM | > 50 µM | > 50 µM | 7.44 µM | 8.36 µM | 1.08 µM | 2.22 µM | 3.34 µM | 2.33 µM
3 | CC1(C)CC2(C)CC1CC2O (stereo not given) | – | > 100 µM | > 100 µM | > 100 µM | > 100 µM | > 100 µM | > 100 µM | > 100 µM | > 100 µM | > 100 µM | > 100 µM | > 100 µM | – | – | – | – | – | –
4 | c1cc2nnc1SCCSCCSc1ccc(nn1)SCCSCCS2 | > 100 µM | > 100 µM | > 100 µM | > 100 µM | > 100 µM | > 100 µM | > 100 µM | > 100 µM | > 100 µM | > 100 µM | – | > 100 µM | – | – | – | – | – | –
5 | O=C1CC2(C[C@@H]3CCCCCCCCC[C@@H](C3)C2)N1 (stereo not given in full) | 30.9 µM | – | 36.3 µM | 34.6 µM | 31.2 µM | – | 34.6 µM | 31.2 µM | – | 30.8 µM | – | 24.5 µM | – | – | – | – | – | –
6 | N#CCCN(c1ccc(C=Nc2cccc([N+](=O)[O-])c2)cc1)S(=O)(=O)c1ccccc1 | – | – | > 100 µM | > 100 µM | > 100 µM | – | > 100 µM | > 100 µM | – | > 100 µM | – | > 100 µM | – | – | – | – | – | –
7 | CCOC(=O)c1c(NC(=O)c2ccccc2)sc2c1CCCC2 | > 100 µM | > 100 µM | – | > 100 µM | > 100 µM | > 100 µM | > 100 µM | > 100 µM | > 100 µM | > 100 µM | > 100 µM | > 100 µM | – | – | – | – | – | –
8 | COc1ccc2nc(-c3ccc(OCc4ccccc4)cc3)ccc2c1 | – | – | > 100 µM | > 100 µM | > 100 µM | – | > 100 µM | > 100 µM | – | > 100 µM | – | > 100 µM | – | – | – | – | – | –
9 | Cc1sc2nc3n(c(=O)c2c1C)N=CN(c1ccccc1)C3 | > 100 µM | – | > 100 µM | > 100 µM | > 100 µM | > 100 µM | > 100 µM | > 100 µM | > 100 µM | > 100 µM | > 100 µM | > 100 µM | – | – | – | – | – | –
10 | CCOC(=O)CCC(NC(=O)c1ccc(OCc2nc3cc(C(F)(F)F)ccc3nc2-c2ccccc2)cc1)C(=O)OCC (stereo not given) | > 100 µM | > 100 µM | 38.4 µM | > 100 µM | > 100 µM | > 100 µM | > 100 µM | – | > 100 µM | > 100 µM | > 100 µM | > 100 µM | – | – | – | – | – | –
11 | O=c1[nH]cnc2c(C3OC(CO)C(O)C3O)c[nH]c12 (stereo not given) | – | > 100 µM | > 100 µM | > 100 µM | > 100 µM | > 100 µM | > 100 µM | > 100 µM | > 100 µM | > 100 µM | > 100 µM | > 100 µM | – | – | – | – | – | –
12 | CC1C(c2cc(C(C)(C)C)c(O)c(C(C)(C)C)c2)c2cc3c(cc2OC1N1CCOCC1)OCO3 (stereo not given) | – | 10.6 µM | – | 40.5 µM | 32.1 µM | > 100 µM | > 100 µM | 31.2 µM | > 100 µM | > 100 µM | – | – | – | – | – | – | – | –
13 | COC1O[C@H]2CCN(C(=O)OCc3ccccc3)[C@H]2[C@H]1OCc1ccccc1 (stereo not given in full) | > 100 µM | – | > 100 µM | > 100 µM | > 100 µM | – | > 100 µM | > 100 µM | – | > 100 µM | – | > 100 µM | – | – | – | – | – | –
14 | Cc1cc2c(c(C(=O)NCCC(=O)O)c1)Oc1c(cc(C)cc1C(=O)NCCC(=O)O)S2 | – | > 100 µM | > 100 µM | > 100 µM | > 100 µM | > 100 µM | > 100 µM | > 100 µM | > 100 µM | > 100 µM | > 100 µM | > 100 µM | – | – | – | – | – | –
15 | CC12CC(c3ccccc3O1)C(C(=O)Nc1ccc(F)cc1)C(=O)N2 (stereo not given) | > 100 µM | > 100 µM | > 100 µM | > 100 µM | – | > 100 µM | > 100 µM | – | > 100 µM | – | > 100 µM | > 100 µM | – | – | – | – | – | –
16 | O=C1CC2C=CC(O)C(C1)C2 (stereo not given) | > 100 µM | > 100 µM | > 100 µM | > 100 µM | > 100 µM | > 100 µM | > 100 µM | > 100 µM | > 100 µM | > 100 µM | – | > 100 µM | – | – | – | – | – | –
17 | O=C1O[C@@H](c2ccccc2)C[C@@H]1CN1CCOCC1 | > 100 µM | – | > 100 µM | – | > 100 µM | – | > 100 µM | > 100 µM | – | > 100 µM | – | > 100 µM | – | – | – | – | – | –
18 | O=C1CCCN(c2ccccc2)N1 | > 100 µM | – | > 100 µM | > 100 µM | > 100 µM | – | > 100 µM | – | – | > 100 µM | – | > 100 µM | – | – | – | – | – | –
19 | O=C1CC(O)c2c1csc2Br (stereo not given) | – | 72.4 µM | 96.2 µM | > 100 µM | > 100 µM | 88 µM | 43.3 µM | 38.2 µM | 83.4 µM | 87.9 µM | 52.9 µM | 82.4 µM | – | – | – | – | – | –
20 | Cc1c(Cl)cccc1NC(=O)C(=O)C1C(=O)CC(C)(C)CC1=O | > 100 µM | – | > 100 µM | > 100 µM | > 100 µM | – | > 100 µM | > 100 µM | – | > 100 µM | – | > 100 µM | – | – | – | – | – | –
21 | c1ccc(C[P+]2(c3ccccc3)c3ccccc3-c3ccccc32)cc1 | – | > 100 µM | – | > 100 µM | > 100 µM | > 100 µM | > 100 µM | > 100 µM | > 100 µM | > 100 µM | > 100 µM | – | – | – | – | – | – | –
